# PMC9598367, “Discovery and Preliminary Structure-Activity Investigation of 3-Substituted-1H-imidazol-5-yl-1H-indoles with In Vitro Activity towards Methicillin-Resistant Staphylococcus aureus” (Antibiotics, 2022)
# Assays:
# [1] = system: human red blood cells; test: Hemolytic assay; type: cell-based; details: concentration at 10% hemolytic activity on human red blood cells; mean (n = 2)
# Experimental: Human whole blood was washed three times with 3 volumes of 0.9% NaCl and then resuspended in same to a concentration of 0.5 × 10^8 cells/mL, as determined by manual cell count in a Neubauer hemocytometer. The washed cells were then added to the 384-well compound-containing plates for a final volume of 50 μL. After a 10 min shake on a plate shaker the plates were then incubated for 1 h at 37 °C. After incubation, the plates were centrifuged at 1000 g for 10 min to pellet cells and debris, 25 μL of the supernatant was then transferred to a polystyrene 384-well assay plate. Hemolysis was determined by measuring the supernatant absorbance at […] (OD405). The absorbance was measured using a Tecan M1000 Pro monochromator plate reader. HC10 and HC50 (concentration at 10% and 50% hemolysis, respectively) were calculated by curve fitting the inhibition values vs. log(concentration) using a sigmoidal dose–response function with variable fitting values for top, bottom and slope.
# [2] = system: Cryptococcus neoformans ATCC208821; test: Antifungal MIC, C. neoformans; type: cell-based; details: Cryptococcus neoformans ATCC208821; mean (n = 2)
# Experimental: For the antifungal assay, fungi strains were cultured for 3 days on yeast extract-peptone dextrose (YPD) agar at 30 °C. A yeast suspension of 1 × 10^6 to 5 × 10^6 CFU/mL was prepared from five colonies. These stock suspensions were diluted with yeast nitrogen base (YNB) (Becton Dickinson, 233520) broth to a final concentration of 2.5 × 10^3 CFU/mL. The compounds were serially diluted 2-fold across the wells of 96-well plates (Corning 3641, nonbinding surface), with compound concentrations ranging from 0.015 to 64 μg/mL and final volumes of 50 μL, plated in duplicate. Then, 50 μL of the fungi suspension that was previously prepared in YNB broth to the final concentration of 2.5 × 10^3 CFU/mL was added to each well of the compound-containing plates, giving a final compound concentration range of 0.008 to 32 μg/mL. Plates were covered and incubated at 35 °C for 36 h without shaking. C. albicans MICs were determined by measuring the absorbance at OD530. For C. neoformans, resazurin was added at 0.006% final concentration to each well and incubated for a further 3 h before MICs were determined by measuring the absorbance at OD570–600.
# Colistin and vancomycin were used as positive bacterial inhibitor standards for Gram-negative and Gram-positive bacteria, respectively. Fluconazole was used as a positive fungal inhibitor standard for C. albicans and C. neoformans. The antibiotics were provided in 4 concentrations, with 2 above and 2 below its MIC value, and plated into the first 8 wells of column 23 of the 384-well NBS plates. The quality control (QC) of the assays was determined by the antimicrobial controls and the Z′-factor (using positive and negative controls).
melting point [°C],Molecule,also measured
,Melittin [reference compound],HC10 [1]: 2.7 µg/mL
193 to 194,"COc1ccc(Cn2cncc2-c2c[nH]c3ccc(Cl)cc23)cc1 [Compound 14, 5-Chloro-3-(1-(4-methoxybenzyl)-1H-imidazol-5-yl)-1H-indole]",
51 to 52,"COc1ccc2[nH]cc(-c3cncn3CCc3ccccc3)c2c1 [Compound 56, 5-Methoxy-3-(1-phenethyl-1H-imidazol-5-yl)-1H-indole]",
45 to 46,"COc1ccc(CCn2cncc2-c2c[nH]c3cc(OC)ccc23)cc1 [Compound 72, 6-Methoxy-3-(1-(4-methoxyphenethyl)-1H-imidazol-5-yl)-1H-indole]",
74 to 75,"COc1ccc(Cn2cncc2-c2c[nH]c3cccc(Cl)c23)cc1 [Compound 61, 4-Chloro-3-(1-(4-methoxybenzyl)-1H-imidazol-5-yl)-1H-indole]",
147 to 148,CCCCCn1cncc1-c1c[nH]c2cccc(F)c12,
83 to 84,"COc1ccc(CCn2cncc2-c2c[nH]c3cccc(Br)c23)cc1 [Compound 70, 4-Bromo-3-(1-(4-methoxyphenethyl)-1H-imidazol-5-yl)-1H-indole]",
45 to 46,"Fc1cccc2c(-c3cncn3CCc3ccccc3)c[nH]c12 [Compound 52, 7-Fluoro-3-(1-phenethyl-1H-imidazol-5-yl)-1H-indole]",
197 to 198,"COc1ccc(Cn2cncc2-c2c[nH]c3ccc(Br)cc23)cc1 [Compound 16, 5-Bromo-3-(1-(4-methoxybenzyl)-1H-imidazol-5-yl)-1H-indole]",
152 to 153,"COc1ccc(CCn2cncc2-c2c[nH]c3ccc(F)cc23)cc1 [Compound 24, 5-Fluoro-3-(1-(4-methoxyphenethyl)-1H-imidazol-5-yl)-1H-indole]",
186 to 187,"Fc1cccc2c(-c3cncn3Cc3c[nH]c4ccccc34)c[nH]c12 [Compound 74, 3-(1-((1H-Indol-3-yl)methyl)-1H-imidazol-5-yl)-7-fluoro-1H-indole]",
207 to 208,"CCCCCn1cncc1-c1c[nH]c2cccc(Br)c12 [Compound 94, 4-Bromo-3-(1-pentyl-1H-imidazol-5-yl)-1H-indole]",
155 to 156,"c1ccc(-c2cncn2CCc2c[nH]c3ccccc23)cc1 [Compound 113, 3-(2-(5-Phenyl-1H-imidazol-1-yl)ethyl)-1H-indole]",
195 to 196,"c1ccc2c(-c3cncn3CCc3ccc4c(c3)OCO4)c[nH]c2c1 [Compound 36, 3-(1-(2-(Benzo[d][1,3]dioxol-5-yl)ethyl)-1H-imidazol-5-yl)-1H-indole]",
122 to 123,"CCCCCn1cncc1-c1c[nH]c2c(Cl)cccc12 [Compound 93, 7-Chloro-3-(1-pentyl-1H-imidazol-5-yl)-1H-indole]",
> 200,"Ic1ccc(Cn2cncc2-c2c[nH]c3ccccc23)cc1 [Compound 4, 3-(1-(4-Iodobenzyl)-1H-imidazol-5-yl)-1H-indole]",
164 to 165,CCCCCn1cncc1-c1c[nH]c2c(F)cccc12,
198 to 199,"Clc1cccc2[nH]cc(-c3cncn3Cc3ccccc3)c12 [Compound 45, 3-(1-Benzyl-1H-imidazol-5-yl)-4-chloro-1H-indole]",
,"OC(Cn1cncn1)(Cn1cncn1)c1ccc(F)cc1F [fluconazole, reference compound]",MIC [2]: 8 µg/mL
177 to 178,"Fc1cccc2[nH]cc(-c3cncn3Cc3ccccc3)c12 [Compound 43, 3-(1-Benzyl-1H-imidazol-5-yl)-4-fluoro-1H-indole]",
220 to 221,"COc1ccc(Cn2cncc2-c2c[nH]c3c(Cl)cccc23)cc1 [Compound 62, 7-Chloro-3-(1-(4-methoxybenzyl)-1H-imidazol-5-yl)-1H-indole]",

melting point [°C],Molecule,also measured
188 to 189,"Fc1ccc2c(-c3cncn3CCc3ccc4c(c3)OCO4)c[nH]c2c1 [Compound 38, 3-(1-(2-(Benzo[d][1,3]dioxol-5-yl)ethyl)-1H-imidazol-5-yl)-6-fluoro-1H-indole]",
> 200,"Fc1ccc2[nH]cc(-c3cncn3CCc3ccc4c(c3)OCO4)c2c1 [Compound 37, 3-(1-(2-(Benzo[d][1,3]dioxol-5-yl)ethyl)-1H-imidazol-5-yl)-5-fluoro-1H-indole]",
70 to 71,"Clc1ccc2[nH]cc(-c3cncn3CCc3c[nH]c4ccccc34)c2c1 [Compound 84, 3-(1-(2-(1H-Indol-3-yl)ethyl)-1H-imidazol-5-yl)-5-chloro-1H-indole]",
133 to 134,"COc1ccc(OC)c(CCn2cncc2-c2c[nH]c3cc(Br)ccc23)c1 [Compound 35, 6-Bromo-3-(1-(2,5-dimethoxyphenethyl)-1H-imidazol-5-yl)-1H-indole]",
95 to 96,"COc1ccc2c(-c3cncn3Cc3c[nH]c4ccccc34)c[nH]c2c1 [Compound 80, 3-(1-((1H-Indol-3-yl)methyl)-1H-imidazol-5-yl)-6-methoxy-1H-indole]",
195 to 196,"Clc1cccc2[nH]cc(-c3cncn3Cc3c[nH]c4ccccc34)c12 [Compound 75, 3-(1-((1H-Indol-3-yl)methyl)-1H-imidazol-5-yl)-4-chloro-1H-indole]",
48 to 49,"COc1ccc(CCn2cncc2-c2c[nH]c3ccc(OC)cc23)cc1 [Compound 71, 5-Methoxy-3-(1-(4-methoxyphenethyl)-1H-imidazol-5-yl)-1H-indole]",
> 200,"Clc1ccc2[nH]cc(-c3cncn3Cc3ccc(I)cc3)c2c1 [Compound 7, 5-Chloro-3-(1-(4-iodobenzyl)-1H-imidazol-5-yl)-1H-indole]",
> 200,"Clc1ccc2c(-c3cncn3Cc3ccc(I)cc3)c[nH]c2c1 [Compound 8, 6-Chloro-3-(1-(4-iodobenzyl)-1H-imidazol-5-yl)-1H-indole]",
> 230,"Fc1cccc2c(-c3cncn3CCc3c[nH]c4ccccc34)c[nH]c12 [Compound 82, 3-(1-(2-(1H-Indol-3-yl)ethyl)-1H-imidazol-5-yl)-7-fluoro-1H-indole]",
178 to 179,"COc1ccc(Cn2cncc2-c2c[nH]c3cc(Cl)ccc23)cc1 [Compound 15, 6-Chloro-3-(1-(4-methoxybenzyl)-1H-imidazol-5-yl)-1H-indole]",
201 to 202,"Brc1cccc2[nH]cc(-c3cncn3Cc3ccccc3)c12 [Compound 48, 3-(1-Benzyl-1H-imidazol-5-yl)-4-bromo-1H-indole]",
179 to 180,"Fc1cccc2c(-c3cncn3Cc3ccccc3)c[nH]c12 [Compound 44, 3-(1-Benzyl-1H-imidazol-5-yl)-7-fluoro-1H-indole]",
76 to 77,"COc1ccc(CCn2cncc2-c2c[nH]c3cccc(Cl)c23)cc1 [Compound 68, 4-Chloro-3-(1-(4-methoxyphenethyl)-1H-imidazol-5-yl)-1H-indole]",
164 to 165,"Fc1cccc2[nH]cc(-c3cncn3Cc3c[nH]c4ccccc34)c12 [Compound 73, 3-(1-((1H-Indol-3-yl)methyl)-1H-imidazol-5-yl)-4-fluoro-1H-indole]",
78 to 79,"Clc1ccc2[nH]cc(-c3cncn3Cc3ccccc3)c2c1 [Compound 46, 3-(1-Benzyl-1H-imidazol-5-yl)-5-chloro-1H-indole]",
80 to 81,"COc1ccc(OC)c(CCn2cncc2-c2c[nH]c3cc(Cl)ccc23)c1 [Compound 33, 6-Chloro-3-(1-(2,5-dimethoxyphenethyl)-1H-imidazol-5-yl)-1H-indole]",
73 to 74,"Clc1cccc2[nH]cc(-c3cncn3CCc3ccccc3)c12 [Compound 53, 4-Chloro-3-(1-phenethyl-1H-imidazol-5-yl)-1H-indole]",
175 to 176,"COc1ccc(CCn2cncc2-c2c[nH]c3c(F)cccc23)cc1 [Compound 67, 7-Fluoro-3-(1-(4-methoxyphenethyl)-1H-imidazol-5-yl)-1H-indole]",
179 to 180,"COc1ccc(Cn2cncc2-c2c[nH]c3c(F)cccc23)cc1 [Compound 60, 7-Fluoro-3-(1-(4-methoxybenzyl)-1H-imidazol-5-yl)-1H-indole]",
